# Source: US20250154138A1, “Small Molecule IL-17A Modulators” (BeiGene, Ltd., priority 2022, published 2025)
# Key:
# [1] = molecular target: human IL-17A / human IL-17RA (Homo sapiens (Human), UniProt Q16552); assay: Human IL-17A biochemical assay (HTRF, blocking of IL-17A binding to IL-17RA); conditions: 0.4 nM IL-17A, 0.3 nM IL-17RA, max compound concentration 10 uM
# Summary of the method: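 0.4 nM hIL-17A + cpd (10 uM top, 2.7x, 10 pt), 3 h RT, HEPES pH 7.5 buffer w/ BSA, DTT, Tween 20; + 0.3 nM hIL-17RA 1 h RT; Tb/XL665 Abs 1 h; HTRF 620/665 ratio; 4PL IC50.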
# [2] = test system: IL-17-induced GROα secretion from HT-29 cells; assay: GROα release assay in human colorectal adenocarcinoma epithelial cell (HT-29, ELISA); assay type: cell-based; conditions: Homo sapiens, HT-29, 48 h, 10 ng/mL IL-17A, highest concentration 10 μM, read-out: Cellular assay HT29 cell/CXCL1 IC50
# Description: The purpose of the assay is to test the ability of a compound to neutralize IL17A proteins. IL17 can stimulate human epithelial cells to secrete GROα. The ability of one compound of the invention to neutralize IL-17-induced GROα secretion from the human colorectal adenocarcinoma epithelia cell line HT-29 is tested in this assay.
# HT-29 cells (human colorectal adenocarcinoma epithelia cell, ATCC) were stimulated with IL-17A (Novoprotein, #C774) in final concentration of 10 ng/mL. The resultant GROα response was measured using an ELISA kit from Invitrogen (#88-52122). HT-29 cells were cultured in complete medium (McCoy's 5A medium+10% FBS) and maintained in a tissue culture flask using standard techniques. On day 1, detached the cell by using TrypLE (Gibco, #12605036) and used the complete medium to neutralize. The cells were centrifuged at 11,00 rmp for 4 minutes. Re-suspended the cell pellet in complete medium and seeded 50,000 HT-29 cells into the 96-well assay plate (Corning, 3599) at 135 μL complete medium per well. The cells were incubated for overnight, at 37° C./5% CO2 to adherent the plate. On day 2, prepared a 4-fold serial dilution of the tested compound in DMSO. The highest concentration of the compound was 10 μM. Transferred 2 μL of the serial diluted compound from the serial dilution plate into the reagent plate which was contained 198 μL complete medium with 100 ng/mL IL-17A per well. The compounds were incubated with the IL-17A for 15 minutes. 15 μL mixtures from reagent plate were transferred into the cell assay plate. Incubated the plate at 37° C./5% CO2 for 48 hours. After the incubation, on day 4, GROα level were measured with GROα ELISA as the manufacturer's instructions. 50 μL supernatant was collected form the assay plate to ELISA plate. ELISA plate was read at 450 nm on a microplate reader and compared to a standard calibration curve.
# Data were processed using GraphPad Prism. GROα concentration was calculated from the standard curve. IC50 was determined using the equation log concentration (inhibitor) against response and fitted to four parameters.
# human IL-17A / human IL-17RA, sequence (Q16552 24-155): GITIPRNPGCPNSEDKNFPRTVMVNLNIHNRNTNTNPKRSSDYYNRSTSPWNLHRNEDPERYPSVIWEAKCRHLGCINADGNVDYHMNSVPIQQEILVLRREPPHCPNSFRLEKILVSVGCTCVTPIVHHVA
Structure (SMILES),IC50 [1],IC50 [2]
"CCC(CC)OC(=O)C1(N2CC3(CC3)CNC2=O)Cc2ccc(NC(=O)[C@@H](NC(=O)c3nonc3C)C3CCC(F)(F)CC3)cc2C1 (stereo partly drawn) [Example 207, pentan-3-yl 5-((S)-2-(4,4-difluorocyclohexyl)-2-(4-methyl-1,2,5-oxadiazole-3-carboxamido)acetamido)-2-(6-oxo-5,7-diazaspiro[2.5]octan-5-yl)-2,3-dihydro-1H-indene-2-carboxylate]",347 nM,861 nM
"Cc1nonc1C(=O)N[C@H](C(=O)Nc1ccc2c(c1)CC(C(=O)Nc1cccc(F)c1)(N1CC3(CC3)CNC1=O)C2)C1CCC(F)(F)CC1 (stereo partly drawn) [Example 203, N-((1S)-1-(4,4-difluorocyclohexyl)-2-((2-((3-fluorophenyl)carbamoyl)-2-(6-oxo-5,7-diazaspiro[2.5]octan-5-yl)-2,3-dihydro-1H-inden-5-yl)amino)-2-oxoethyl)-4-methyl-1,2,5-oxadiazole-3-carboxamide]",63.9 nM,135 nM
"CC(C)[C@@H]1CN(C2(C(N)=O)Cc3ccc(NC(=O)[C@@H](NC(=O)c4ccnn4C)C4CCCCCC4)cc3C2)C(=O)N1 (stereo partly drawn) [Example 83, N-((1S)-2-((2-carbamoyl-2-((R)-4-isopropyl-2-oxoimidazolidin-1-yl)-2,3-dihydro-1H-inden-5-yl)amino)-1-cycloheptyl-2-oxoethyl)-1-methyl-1H-pyrazole-5-carboxamide]",22 nM,190 nM
"Cc1nonc1C(=O)N[C@H](C(=O)Nc1ccc2c(c1)CC(C(=O)Nc1c(F)cccc1Cl)(N1C[C@@H](C(C)C)NC1=O)C2)C(C1CC1)C1CC1 (stereo partly drawn) [Example 275, N-((2S)-1-((2-((2-chloro-6-fluorophenyl)carbamoyl)-2-((R)-4-isopropyl-2-oxoimidazolidin-1-yl)-2,3-dihydro-1H-inden-5-yl)amino)-3,3-dicyclopropyl-1-oxopropan-2-yl)-4-methyl-1,2,5-oxadiazole-3-carboxamide]",61.3 nM,133 nM
"Cc1nonc1C(=O)N[C@H](C(=O)Nc1ccc2c(c1)CC(N1CC3(CC3)CNC1=O)(C(C)(C)O)C2)C1CCC(F)(F)CC1 (stereo partly drawn) [Example 247, N-((1S)-1-(4,4-difluorocyclohexyl)-2-((2-(2-hydroxypropan-2-yl)-2-(6-oxo-5,7-diazaspiro[2.5]octan-5-yl)-2,3-dihydro-1H-inden-5-yl)amino)-2-oxoethyl)-4-methyl-1,2,5-oxadiazole-3-carboxamide]",20.9 nM,40.8 nM
"CNC(=O)C1(N2CC(C)CNC2=O)Cc2ccc(NC(=O)[C@@H](NC(=O)c3ccnn3C)C3CCCCC3)cc2C1 (stereo partly drawn) [Example 98, N-((1S)-1-cyclohexyl-2-((2-(5-methyl-2-oxotetrahydropyrimidin-1(2H)-yl)-2-(methylcarbamoyl)-2,3-dihydro-1H-inden-5-yl)amino)-2-oxoethyl)-1-methyl-1H-pyrazole-5-carboxamide]",628 nM,3280 nM
"CNC(=O)C1(N2C[C@@H](C(C)C)NC2=O)Cc2ccc(NC(=O)[C@@H](NC(=O)c3cccc(C)c3)C3CCCCC3)cc2C1 (stereo partly drawn) [Example 71, 5-((S)-2-cyclohexyl-2-(3-methylbenzamido)acetamido)-2-((R)-4-isopropyl-2-oxoimidazolidin-1-yl)-N-methyl-2,3-dihydro-1H-indene-2-carboxamide]",21 nM,217 nM
"CNC(=O)C1(N2CC3(CC3)CNC2=O)Cc2ccc(NC(=O)[C@@H](NC(=O)C(F)(F)c3cccc(C#N)c3)C3CCCCC3)cc2C1 (stereo partly drawn) [Example 158, 5-((S)-2-(2-(3-cyanophenyl)-2,2-difluoroacetamido)-2-cyclohexylacetamido)-N-methyl-2-(6-oxo-5,7-diazaspiro[2.5]octan-5-yl)-2,3-dihydro-1H-indene-2-carboxamide]",123 nM,48.5 nM
"CNC(=O)C1(N2C[C@@H](C(C)C)NC2=O)Cc2ccc(NC(=O)C(NC(=O)c3ccnn3C)C3CCc4cc(Cl)ccc4C3)cc2C1 (stereo partly drawn) [Example 186, N-(1-(6-chloro-1,2,3,4-tetrahydronaphthalen-2-yl)-2-((2-((R)-4-isopropyl-2-oxoimidazolidin-1-yl)-2-(methylcarbamoyl)-2,3-dihydro-1H-inden-5-yl)amino)-2-oxoethyl)-1-methyl-1H-pyrazole-5-carboxamide]",6.3 nM,15.1 nM
"Cc1nonc1C(=O)NC(C(=O)Nc1ccc2c(c1)CC(N1C[C@@H](C(F)(F)F)NC1=O)C2)C1Cc2ccc(Cl)cc2C2(CC2)C1 (stereo partly drawn) [Example 227, N-(1-(7′-chloro-3′,4′-dihydro-2′H-spiro[cyclopropane-1,1′-naphthalen]-3′-yl)-2-oxo-2-((2-((S)-2-oxo-4-(trifluoromethyl)imidazolidin-1-yl)-2,3-dihydro-1H-inden-5-yl)amino)ethyl)-4-methyl-1,2,5-oxadiazole-3-carboxamide]",112 nM,168 nM
"Cc1nonc1C(=O)NC(C(=O)Nc1ccc2c(c1)CC(N1C[C@@H](C(F)(F)F)NC1=O)C2)C1CCc2cc(Cl)ccc2C1 (stereo partly drawn) [Example 208, N-(1-(6-chloro-1,2,3,4-tetrahydronaphthalen-2-yl)-2-oxo-2-((2-((S)-2-oxo-4-(trifluoromethyl)imidazolidin-1-yl)-2,3-dihydro-1H-inden-5-yl)amino)ethyl)-4-methyl-1,2,5-oxadiazole-3-carboxamide]",718 nM,2170 nM
"CNC(=O)C1(N2CC3(CCCC3)CNC2=O)Cc2ccc(NC(=O)[C@@H](NC(=O)c3ccnn3C)C3CCCCC3)cc2C1 (stereo partly drawn) [Example 147, N-((1S)-1-cyclohexyl-2-((2-(methylcarbamoyl)-2-(8-oxo-7,9-diazaspiro[4.5]decan-7-yl)-2,3-dihydro-1H-inden-5-yl)amino)-2-oxoethyl)-1-methyl-1H-pyrazole-5-carboxamide]",22.4 nM,61.8 nM
"CNC(=O)C1(N2CC3(CC3)CNC2=O)Cc2ccc(NC(=O)[C@@H](NC(=O)C(F)(F)c3ccc(C#N)n3C)C3CCCCC3)cc2C1 (stereo partly drawn) [Example 176, 5-((S)-2-(2-(5-cyano-1-methyl-1H-pyrrol-2-yl)-2,2-difluoroacetamido)-2-cyclohexylacetamido)-N-methyl-2-(6-oxo-5,7-diazaspiro[2.5]octan-5-yl)-2,3-dihydro-1H-indene-2-carboxamide]",69.9 nM,290 nM
"Cc1nonc1C(=O)N[C@H](C(=O)Nc1ccc2c(c1)CC(C#N)(N1CC3(CC3)CNC1=O)C2)C1CCC(F)(F)CC1 (stereo partly drawn) [Example 210, N-((1S)-2-((2-cyano-2-(6-oxo-5,7-diazaspiro[2.5]octan-5-yl)-2,3-dihydro-1H-inden-5-yl)amino)-1-(4,4-difluorocyclohexyl)-2-oxoethyl)-4-methyl-1,2,5-oxadiazole-3-carboxamide]",91.6 nM,294 nM
"CC(C)[C@@H]1CN(C2Cc3ccc(NC(=O)[C@@H](NC(=O)c4ccnn4C)C4CCCCC4)cc3C2)C(=O)N1 (stereo partly drawn) [Example 162, N-((1S)-1-cyclohexyl-2-((2-((R)-4-isopropyl-2-oxoimidazolidin-1-yl)-2,3-dihydro-1H-inden-5-yl)amino)-2-oxoethyl)-1-methyl-1H-pyrazole-5-carboxamide]",540 nM,1060 nM
"Cc1nonc1C(=O)N[C@H](C(=O)Nc1ccc2c(c1)OC(C(C)N1C[C@@H](C(F)(F)F)NC1=O)C2)C(C1CC1)C1CC1 (stereo partly drawn) [Example 276, N-((2S)-1,1-dicyclopropyl-3-oxo-3-((2-(1-((S)-2-oxo-4-(trifluoromethyl)imidazolidin-1-yl)ethyl)-2,3-dihydrobenzofuran-6-yl)amino)propan-2-yl)-4-methyl-1,2,5-oxadiazole-3-carboxamide]",573 nM,1460 nM
"CC(C)[C@@H]1CN(C2(C(=O)NCC(F)(F)F)Cc3ccc(NC(=O)[C@@H](NC(=O)c4ccnn4C)C4CCCCC4)cc3C2)C(=O)N1 (stereo partly drawn) [Example 68, N-((1S)-1-cyclohexyl-2-((2-((R)-4-isopropyl-2-oxoimidazolidin-1-yl)-2-((2,2,2-trifluoroethyl)carbamoyl)-2,3-dihydro-1H-inden-5-yl)amino)-2-oxoethyl)-1-methyl-1H-pyrazole-5-carboxamide]",30 nM,37 nM
"CNC(=O)C1(N2C[C@@H](C(C)C)NC2=O)Cc2ccc(NC(=O)[C@@H](NC(=O)c3ccccc3)C3CCCCC3)cc2C1 (stereo partly drawn) [Example 54, 5-((S)-2-benzamido-2-cyclohexylacetamido)-2-((R)-4-isopropyl-2-oxoimidazolidin-1-yl)-N-methyl-2,3-dihydro-1H-indene-2-carboxamide]",24 nM,137 nM
